Measurements as given in a melting point compilation (Tetko et al.; mined from patent text by program, amines drawn as free bases though some values may be those of a salt).

| Structure (SMILES) | melting point |
| --- | --- |
| Cc1oc(-c2ccccc2)nc1COc1ccc(Sc2nc(CC(=O)O)cs2)cc1 | 180 to 181 °C |
| CCOC(=O)Nc1ccccc1N1CC2(CCN(C)CC2)c2ccccc21 | 99.5 to 101 °C |
| Cn1c2c(ccc1=O)C(C)(N)CCC2 (stereo not given) | 166 to 168 °C |
| O=c1c2cc(Cl)ccc2nc2n1CS(=O)(=O)N2 | > 300 °C |
| CN(C1CCCOc2ccccc21)S(C)(=O)=O (stereo not given) | 143 to 145 °C |
| COc1c(C)c(C)c(OC)c(C(O)(c2ccc(C(C)C)cc2)C2CCN(Cc3ccccc3)CC2)c1C (stereo not given) | 105 to 108 °C |
| O=C1N(CC2COCCO2)c2ccccc2C12COc1cc3c(cc12)OCC3 (stereo not given) | 162 to 164 °C |
| CN1CCc2nc3cc(Cl)ccc3c(-c3cccs3)c2C1 | 131 to 132 °C |
| COC(=O)c1cc2cc(OC)ccc2cc1/N=C/N(C)C | 160 to 162 °C |
| Cn1nc(-c2ccncc2)nc1-c1ccccn1 | 145 to 146 °C |
| C#CC(CC)(CC)NC(N)=O | 108 °C |
| CN(C)c1cc(CO)cc(N(C)C)c1N1CCCCC1 | 90 to 92 °C |
| CC(C)CCC(=O)Nc1ccc2oc3c(c2c1)CCCC3 | 146 °C |
| CNC(=O)Oc1ccc2oc3ccccc3c2c1 | 155 to 156 °C |
| COc1ccc2c(Cc3c(Cl)cncc3Cl)nncc2c1C#CCCCc1ccccc1 | 130 to 132 °C |
| CCCCc1nnc(C(=O)N(C)Cc2ccccc2)n1Cc1ccc(-c2ccccc2-c2nnn[nH]2)cc1 | > 95 °C |
| O=C(O)CCc1cc(C(c2cc(F)ccc2F)S(=O)(=O)c2ccc(C(F)(F)F)cc2)c(Cl)cn1 (stereo not given) | 166 to 167 °C |
| CCCCc1c[nH]cn1 | 42 to 45 °C |
| O=C1COc2ccc(C3=Nn4cnnc4SC3c3ccccn3)cc2N1 (stereo not given) | 216 to 218 °C |
| CCc1nc(N)nc(NC(CC)COCc2ccc(F)cc2)n1 (stereo not given) | 96 °C |
| CCOC(=O)c1c(CCn2ccnc2)nc2cc(OC)c(OC)cc2c1-c1ccc(OC)c(OC)c1 | 173 to 174 °C |
| CCCCOC(=O)Cc1nc(-c2ccccc2)oc1-c1ccsc1 | 71 to 72 °C |
| C=C(C)C(=O)NCCCNC(=O)OC(C)(C)C | 85.8 °C |
| N#Cc1cc(C#N)c(SC2SCC(O)C(O)C2O)c(C#N)c1 (stereo not given) | 86 to 96 °C |
| C=C1CCn2c(CCc3ccccc3)nc3cccc1c32 | 81 to 82.2 °C |

| Structure (SMILES) | melting point |
| --- | --- |
| O=C1C(=Cc2cccc(C(F)(F)F)c2)SC(=S)N1N=c1sc2ccccc2s1 | 268 to 269 °C |
| Cc1ccc2c([N+](=O)[O-])cc([N+](=O)[O-])c(O)c2n1 | 295 to 300 °C |
| ON=Cc1c[nH]c2cccc(OCc3ccccc3)c12 | 206 to 210 °C |
| CCCCc1nc2ccccc2c(=O)n1Cc1ccc(-c2ccccc2-c2nnn[nH]2)cc1 | 180 to 182 °C |
| CC(=O)c1c[nH]c2nccc(OCC3CCCCC3)c12 | > 210 °C |
| CC(C)NCC(O)COc1ccc(CCSCC2CCC2)cc1 (stereo not given) | 52 °C |
| CC(C)c1c(C=O)c(-c2ccc(F)cc2)n2c1CCCC2 | 100 to 101 °C |
| O=C(O)CC(F)C(=O)c1ccc(-c2ccc(Cl)cc2)cc1 (stereo not given) | 170 to 173 °C |
| O=C(c1cccnc1)N1CC2CSc3ccccc3C2=N1 (stereo not given) | 173 to 175 °C |
| Nc1ccc(-c2noc3cc(F)ccc23)cc1[N+](=O)[O-] | 239 °C |
| O=C1Oc2ccccc2Oc2ccccc21 | 62 to 66 °C |
| CNC(=O)CC(SC(=O)c1ccccc1)C(CC(C)C)C(=O)NC(Cc1ccc(OC)cc1)C(=O)NC (stereo not given) | 140 to 144 °C |
| CCOC(=O)COC1CCC2C3CCC4NC(=O)CCC4(C)C3CCC12C (stereo not given) | 170 to 172 °C |
| CC(C)SC(C)(C)C(=O)O | 51.5 to 52.5 °C |
| O=Cc1c(Cl)cc(Cl)cc1-c1ccc(F)cc1 | 73 to 74 °C |
| C=C1SC(=S)N(c2cccc3c(-c4ccc(OC)c(C56CC7CC(CC(C7)C5)C6)c4)cccc23)C1=O | 322 to 324 °C |
| O=C(COc1cccc(CCNS(=O)(=O)c2ccc(Cl)cc2)c1)N1CCOCC1 | 110 to 111 °C |
| COC(=O)c1c(SCc2ccc(OC)cc2)nc(C)n1Cc1cc2c(cc1Cl)OCO2 | 169 °C |
| C#CCOc1cccc(C)c1S(N)(=O)=O | 129 °C |
| CN1Cc2c(Br)ncn2-c2ccccc2C1=O | 196 to 198 °C |
| CCCCOc1cc([N+](=O)[O-])c(OCCCC)cc1N=NN1CCOCC1 | 79 to 81 °C |
| COc1cc(N)c(Cl)cc1C(=O)NCC1CCN(CCCCCNC(=O)Nc2ccc(Cl)cc2)CC1 | 204 to 206 °C |
| CNC(=O)C1SCOC(=NO)S1 (stereo not given) | 99 to 102 °C |
| CCCCC[C@H]1CC[C@H](c2cnc([C@H]3CC[C@H](C#N)CC3)nc2)CC1 | 110 °C |

Further lines, results first:

| melting point | Structure (SMILES) |
| --- | --- |
| 120 to 121 °C | Cc1nccnc1C(=O)Nc1ccccc1-c1ccc(OC(F)(F)F)cc1 |
| 140 to 141 °C | CN(C)C1CCC(O)(c2ccccc2Cc2ccccc2)CC1 (stereo not given) |
| 153 to 157 °C | COc1c(Cl)cc(C(=O)Cl)cc1Cl |
| 152 to 153 °C | Cc1cc(=O)c(O)co1 |
| 149 to 152 °C | O=C(CCCN1CCC2(CC(O)c3cc(Cl)cc(Cl)c32)C1)c1ccc(F)cc1 (stereo not given) |
| 71.5 to 72.5 °C | COCCOc1cc(Cl)cnc1[N+](=O)[O-] |
| 283 to 284 °C | CCn1cc(C(=O)O)c(=O)c2cc(F)c(N3CCN(S(=O)(=O)c4ccc(N)cc4)CC3)cc21 |
| 217 to 218 °C | COc1cccc(OC)c1C(=O)Oc1cc([N+](=O)[O-])cc([N+](=O)[O-])c1O |
| 229 to 231 °C | c1ccc(COc2ccc(Cc3nnc(Nc4ccc5c(c4)ncn5-c4ccccc4)c4ccccc34)cc2)cc1 |
| 193 °C | CCOc1cc(N(CC)CC)ccc1C1(c2c(C)n(CC)c3ccccc23)OC(=O)c2ccccc21 (stereo not given) |
| 180 to 181 °C | COc1ccc(C(=O)N2c3ccccc3[C@H](N(C)c3ccccc3)C[C@@H]2C)cc1OC (relative stereo) |
| 95 to 98 °C | CC(C)c1ccc(N(Cc2ccc(N(C)C)cc2)C(=O)C2CCOc3ccc(F)cc32)cc1 (stereo not given) |
| 120 to 122 °C | O=C(O)CSc1nc(Cl)cc(Cl)n1 |
| 192 to 200 °C | Oc1ccccc1N1c2ccccc2Sc2ccccc21 |
| 250 to 252 °C | Cn1cc(C2=C(c3cn(CCO)c4ccccc34)C(=O)NC2=O)c2ccccc21 |
| 111 to 112 °C | Cc1oc(-c2ccccc2)nc1COc1ccc(CON=C(CCCC(C)(C)C(=O)O)c2ccccc2)cc1 |
| 233 to 234 °C | CCc1nc(NC(=O)C2=C(O)c3ccc4ccccc4c3S(=O)(=O)N2C)sc1C |
| 95 to 96 °C | CCCCCCCCCCCCCCCCOc1cc(NS(=O)(=O)c2cc([N+](=O)[O-])ccc2N2CCOCC2)c(OC(C)=O)cc1C |
| 148 to 150 °C | COC(=O)c1ccccc1-c1ccc(CN2C(=O)c3ccccc3C2=O)cc1 |
| 133 to 135 °C | Cc1ccc(S(C)(=O)=O)cc1-c1n[nH]c2nc(Oc3ccc(F)cc3F)ncc12 |
| 206 to 207 °C | CCc1cc(OC)c(OC)cc1Cc1cnc(N)nc1N |
| 250 to 252 °C | O=S(=O)(N=C(O)c1ccc(OCCn2ccnc2)cc1)c1ccccc1 |
| 191 to 192 °C | O=C(O)COc1cccc2c(CNS(=O)(=O)Cc3ccccc3)coc12 |
| 145 to 148 °C | CSC(=O)C(=O)c1cc(NC=O)ccn1 |
| 43.2 to 43.4 °C | CCCCCCCCCCCC(=O)c1ccc(-c2ccc(OCC(C)OC(=O)CCCCCC)c(Cl)c2)cc1 (stereo not given) |
| 256 to 258 °C | O=C(O)Cc1c(C(=O)O)c2cc(Oc3ccc(C(F)(F)F)cc3)ccc2n1-c1ccc(C2CCNCC2)cc1 |

| melting point | Structure (SMILES) |
| --- | --- |
| 247 °C | O=C(O)c1oc(-c2ccccc2)cc(=O)c1Br |
| 94 °C | CC(C)(F)CC(=O)c1cc(C(C)(C)C)c(O)c(C(C)(C)C)c1 |
| 234 to 235 °C | O=[N+]([O-])c1ccc(-c2nn(-c3ccccn3)cc2C=NO)o1 |
| 82 °C | COC(=O)C1c2ccccc2Oc2ccccc21 |
| 141 °C | COc1ccc(-c2cc(=S)n(CC=Cc3ccc(F)cc3F)nc2-c2ccc(OC)cc2)cc1 |
| 149 to 152 °C | CCOCc1nc2c(N)nc3cc(-c4cccc(C(=O)N5CCOCC5)c4)cnc3c2n1CC(C)(C)O |
| 152 to 154 °C | CNc1nnnn1-c1ccccc1C(=O)O |
| 176 to 179 °C | CCOC(=O)c1cn(CC)c2cc(N3CCN(C)CC3)c(F)cc2c1=O |
| 72 to 73 °C | C(=CCN(CC1CCCCC1)CC1CCCCC1)CN(CC1CCCCC1)CC1CCCCC1 |
| 143 to 144 °C | CCCn1nc2c(N)nc3ccccc3c2c1CCNC(=O)OCC |
| 163 to 165 °C | CC(C)(CC(O)(Cn1ccc(=O)c2sccc21)C(F)(F)F)c1cc(S(C)(=O)=O)cc2c1OCC2 (stereo not given) |
| > 300 °C | COc1ccc(-c2[nH]nc3c2C(=O)c2c(NC(=O)NNC(=O)c4ccccc4)cccc2-3)cc1 |
| 83 to 85 °C | N#Cc1cnn(-c2ccc(Cl)cc2Cl)c1C(F)(F)F |
| 132 to 134 °C | CCOC(=O)N1CCN(c2nc(N)ccc2[N+](=O)[O-])CC1 |
| 186 to 187 °C | CCCCCCCCCC(C)(C)c1cc(C(=O)Sc2ccc(C(=O)O)cc2)ccc1OC |
| 125 to 127 °C | CSC(=O)N1c2ccccc2C(=O)N(C(C)C)S1(=O)=O |
| 153 °C | O=c1[nH]c(=O)n(C2CC(Br)C(CBr)O2)cc1C=CBr (stereo not given) |
| 214 °C | CN1C(=O)C(C(C)(C)C)NNC1=S (stereo not given) |
| 151 to 153 °C | COc1ccc(Cl)cc1N1CCN(CCCNC(=O)c2cccc3c(=O)c(C)c(C(=O)N(C)C)oc23)CC1 |
| 117 to 119 °C | CCOC(=O)c1sc(N2CCN(Cc3ccc(Cl)cc3)C2=O)nc1C |
| 106 to 109 °C | C=CCN1CC(=O)N2CCC[C@H]2C1=O |
| 206 to 208 °C | CCOC(=O)COc1ccc(C(=O)Nc2cc(Cl)ccc2Sc2ccccc2-c2nnn[nH]2)cc1 |
| 93 to 94 °C | CCc1cccc(CC(=O)O)c1OCCCc1cn(-c2ccc(C(F)(F)F)nn2)nc1C(CC)CC |
| 229 to 230 °C | Nc1ccc(C(=O)c2cccnc2)cc1[N+](=O)[O-] |
| 86 to 87 °C | CC(COc1c(-c2ccccc2)c(=O)oc2ccccc12)CN1CCCCC1 (stereo not given) |
